PubChem BioAssay (NCI)
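The compound was tested at five concentrations on cells cultured in 96-well plates, with a 48-hour exposure period. Abbreviation: GI50, concentration required for 50% inhibition of growth. Definition used: TGI = concentration required for complete inhibition of growth.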

Legend:
Assay in all cases: DTP human tumour cell line panel, 48 h
[1] = system: SF-539 CNS
[2] = system: K-562 leukemia
[3] = system: HCT-116 colon
[4] = system: SK-MEL-28 melanoma
[5] = system: OVCAR-3 ovarian
[6] = system: SN12C renal
[7] = system: SK-OV-3 ovarian
[8] = system: MCF7 breast
[9] = system: SF-268 CNS
[10] = system: ACHN renal

| Compound | GI50 [1] | TGI [1] | GI50 [2] | TGI [2] | GI50 [3] | TGI [3] | GI50 [4] | TGI [4] | GI50 [5] | TGI [5] | GI50 [6] | TGI [6] | GI50 [7] | TGI [7] | GI50 [8] | TGI [8] | GI50 [9] | TGI [9] | GI50 [10] | TGI [10] |
| --- | --- | --- | --- | --- | --- | --- | --- | --- | --- | --- | --- | --- | --- | --- | --- | --- | --- | --- | --- | --- |
| CNCc1cccc2c1OCCOCCOCCNS(=O)(=O)c1ccc(cc1)-c1cnc(N)c(n1)C(=O)N2 | 1.11 µM | 2.38 µM | 1.26 µM | 5.46 µM | 0.67 µM | 2.67 µM | 1.66 µM | 3.27 µM | 1.12 µM | 2.61 µM | 1.22 µM | 3.79 µM | 0.543 µM | 8.01 µM | 0.439 µM | 5.11 µM | 1.04 µM | 3.31 µM | 2.78 µM | 11.7 µM |
| O=C(CC1(O)C(=O)Nc2c(Cl)cc(Cl)cc21)c1cccc([N+](=O)[O-])c1 (stereo unspecified) |  | 55.4 µM |  | 70.2 µM |  | 59 µM |  | > 80.6 µM |  | 58.5 µM |  | 58.1 µM |  | > 100 µM |  | 33.3 µM |  | > 100 µM |  | > 54.6 µM |
| O=C1NC(c2ccccc2Cl)Nc2ccccc21 (stereo unspecified) |  | 32.6 µM |  | > 30.4 µM |  | > 100 µM |  | > 100 µM |  | 31.3 µM |  | > 100 µM |  | > 100 µM |  | > 100 µM |  | > 100 µM |  | > 100 µM |
| O=c1c(Oc2ccc(F)cc2F)cc2cnc(NC3CCOCC3)nc2n1C1CC1 | > 25 µM | > 25 µM | > 25 µM | > 25 µM | > 25 µM | > 25 µM | > 25 µM | > 25 µM | > 25 µM | > 25 µM | > 25 µM | > 25 µM | > 25 µM | > 25 µM | > 25 µM | > 25 µM | > 25 µM | > 25 µM | > 25 µM | > 25 µM |
| CN(C)[C@@H]1C(=O)C(C(=O)NCc2nc3[nH]cnc(=S)c3[nH]2)=C(O)[C@@]2(O)C(=O)C3=C(O)c4c(O)cccc4[C@@](C)(O)[C@H]3C[C@@H]12 | 3.67 µM | > 100 µM | 1.41 µM | > 100 µM | 3.3 µM | > 100 µM | > 100 µM | > 100 µM | 2.52 µM | > 100 µM | 59.9 µM | > 100 µM | 2 µM | > 100 µM | 1.57 µM | > 100 µM |  |  | 16.1 µM | > 100 µM |
| COc1ccccc1CNCCCN1C(=O)c2ccc3c4c(ccc(c24)C1=O)C(=O)N(CCCNCc1ccccc1OC)C3=O | 0.221 µM | 0.612 µM | 0.265 µM | 0.83 µM | 0.0805 µM | 0.274 µM | 0.436 µM | 0.876 µM | 0.085 µM | 0.218 µM | 0.151 µM | 0.305 µM | 0.352 µM | 1 µM | 0.108 µM | 0.329 µM | 0.257 µM | 0.834 µM | 0.17 µM | 0.555 µM |
| CC(C)c1ccc2c(c1)CCC1C2CCCC1(C)NCc1ccccc1 (stereo unspecified) | 5.5 µM | 18.5 µM | 1.46 µM | 10.9 µM | 4.21 µM | 14.7 µM | 1.98 µM | 3.83 µM | 9.34 µM | 24.4 µM | 5.56 µM | 19.2 µM | 14.3 µM | 27.6 µM | 2.53 µM | 6.76 µM | 8.98 µM | 26.1 µM | 10 µM | 22.7 µM |
| OCc1ccc(N2CCc3ccc(F)cc3C2)cc1Cl | 15.9 µM | 31 µM | 0.159 µM | 19.6 µM | 0.0267 µM | 11.1 µM | 13.1 µM | 26.1 µM | 0.0605 µM | 0.325 µM | 8.22 µM | 22.9 µM | 2.71 µM | 13.6 µM | 0.137 µM | 11 µM | 13.1 µM | 27 µM | 10.4 µM | 23 µM |
| OC[C@H]1C[C@](O)(c2ccc(F)cc2)[C@@H](c2ccc(F)cc2)O1 | > 100 µM | > 100 µM | > 100 µM | > 100 µM | 90.5 µM | > 100 µM | > 100 µM | > 100 µM | > 100 µM | > 100 µM | > 100 µM | > 100 µM | > 100 µM | > 100 µM | > 100 µM | > 100 µM | > 100 µM | > 100 µM | > 100 µM | > 100 µM |
| COc1ccc(-n2c(=O)c3ccccc3n(Cc3ccc(C(=O)NO)cc3)c2=O)cc1 | 1.93 µM | 5.25 µM | 3.11 µM | > 100 µM | 1.78 µM | 4.16 µM | 2.18 µM | 5.83 µM | 2.07 µM | 5.95 µM |  |  | 2.45 µM | 6.69 µM | 2.68 µM | 76.4 µM | 1.91 µM | 4.25 µM | 3.23 µM | 13.5 µM |
| CCCCCCCCCCN=C(N)c1ccc(N2CCN(c3ccc(C(N)=NCCCCCCCCCC)cc3)CC2)cc1 | 1.72 µM | 6.76 µM | 1.95 µM | > 50 µM |  |  | 4.76 µM | 36 µM | 2.23 µM | 8.57 µM | 2.19 µM | 15.2 µM | 4.08 µM | > 50 µM | 1.55 µM | > 50 µM | 2.27 µM | 11.1 µM | 15.7 µM | > 50 µM |
| O=C1c2ccccc2N1C(=O)c1ccccc1[N+](=O)[O-] |  | > 100 µM |  | > 100 µM |  | > 100 µM |  | > 100 µM |  | 88.4 µM |  |  |  | > 100 µM |  | > 100 µM |  | > 100 µM |  | > 100 µM |
| O=S(=O)(Nc1ccccc1)c1ccc(C2CC3(Cl)C(Cl)=C(Cl)C2(Cl)C3(Cl)Cl)cc1 (stereo unspecified) | 2.32 µM | 5.79 µM | 2.51 µM | 9.84 µM | 1.81 µM | 3.44 µM |  |  | 2.18 µM | 4.13 µM | 1.71 µM | 3.3 µM | 3.45 µM | 10.1 µM | 2.59 µM | 7.67 µM | 3.8 µM | 12.8 µM | 3.37 µM | 10.5 µM |
